Consider four molecules from PMC9747239, “State-selective modulation of heterotrimeric Gαs signaling with macrocyclic peptides” (Cell, 2022).

Where a SMILES comes first, the peptide text is derived from it. Bridges are numbered along the chain shown (N, C = ends). [ ]: non-standard residue; d: D form.

One data set addresses T1, Gαs (short isoform) (Homo sapiens, UniProt P63092).
T1 construct: vector His tag with thrombin/Drice site (removed); made in house; host or cells: E. coli BL21(DE3)
Kind of data set: Reconstituted adenylyl cyclase (AC) activity assay, Gαs/GNP-mediated AC activation. The class given is biochemical. Particulars: Gαs/GNP 125 nM, read-out: IC50, inhibition of Gαs-mediated AC activation. The protocol:
Cyclic peptides (4 mM stock in DMSO) were diluted to 4X stocks with a series of concentrations in reaction buffer (1x PBS 7.4, 0.1% BSA). Gαs at a concentration of 8.5 mg/mL (about 190 μM) in 20 mM HEPES 8.0, 150 mM NaCl, 5 mM MgCl2, 1 mM EDTA-Na 8.0 was diluted to 0.5 μM in dilution buffer (1x PBS 7.4, 0.1% BSA, 1 mM EDTA-Na 8.0, 2 mM DTT, 0.1mM MgCl2) plus 1mM GNP (For the GDP-bound R201 mutants, GDP was used in the nucleotide exchange experiments). After incubation at room temperature for 1 h to allow nucleotide exchange, 2.5 μL of 4x Gαs dilution was mixed with 1 μL MgCl2 stock (20 mM MgCl2, 1x PBS 7.4, 0.1% BSA) in an OptiPlate-384, White Opaque 384-well Microplate to lock Gαs in GNP-bound state. 2 μL of 5x AC stock (2 μM VC1, 2 nM IIC2, 150 μM FSK, 1x PBS 7.4, 0.1% BSA) was added, followed by addition of 2.5 μL 4X cyclic peptides stock. […] The cAMP concentrations were measured by the LANCE Ultra cAMP kit. […]
cAMP concentrations measurement by the LANCE Ultra cAMP kit: A cAMP standard curve was generated in the same plate using the 50 μM cAMP standard in the kit. […] 10 μL of each diluted sample was mixed with 5 μL of 4X Eu-cAMP tracer and 5 μL of 4X ULight-anti-cAMP in a white, opaque Optiplate-384 microplate, incubated for 1 h at room temperature, and the time-resolved fluorescence resonance energy transfer (TR-FRET) signals were read on a Spark 20M plate reader. […]

The target of a further data set is T2, Gαs/GNP (Homo sapiens, UniProt P63092).
T2 construct: hexahistidine (N, cleaved yes); made in house; host or cells: E. coli BL21(DE3)
Kind of data set: Bio-layer interferometry (BLI), GNP-bound Gαs. Conditions: immobilized Gαs/GNP, read-out: KD, binding to Gαs/GNP. How it is done: (§1) BLI experiments were performed using an OctetRED384 instrument from ForteBio. All experiments were performed at 25°C using BLI buffer (10 mM HEPES pH 7.4, 150 mM NaCl, 1mM MgCl2, 0.05% Tween 20, 0.1% DMSO, 0.2 mM GNP or GDP). Cyclic peptides or Gα proteins were diluted to a series of concentrations (Final concentrations were indicated in Figures) in BLI buffer plus 10 μM Biotin. Assays were conducted in Greiner 384well, black, flat bottom polypropylene plates containing the protein solutions, BLI buffer plus 10 μM Biotin for dissociation, and serial dilutions of cyclic peptides to be tested.
(§2) Biotinylated proteins or cyclic peptides were immobilized on Streptavidin biosensors by dipping sensors into plate wells containing protein solutions at a concentration of 50–150 nM. Protein loading is around 2–3 nm. Cyclic peptide loading is around 0.2–0.3 nm. Sensors loaded with proteins or cyclic peptides were moved and dipped into wells with BLI buffer plus 10 μM Biotin to block unlabeled Streptavidin. […]
(§3) Raw kinetic data collected were processed with the Data Analysis software provided by the manufacturer using single reference subtraction in which buffer-only reference was subtracted (For GN13 analysis). […] The resulting data were analyzed based on a 1:1 binding model from which kon and koff values were obtained and then Kd values were calculated.

A short description of data set [1]: Chemical stability assay in DMEM with 10% FBS. Particulars: bovine, DMEM with 10% FBS (fetal bovine serum), 37 °C, values represent 95% confidence intervals, read-out: Half-life (hour), chemical stability in DMEM with 10% FBS. It is filed as in vitro ADME. How it is done: (§4) These assays were conducted by Pharmaron Beijing CO., Ltd. Cyclic peptides working solutions were prepared at 10 μM in DMEM with 10% FBS (Avantor, Cat# 76,294–180) or human plasma (Pooled, Male & Female, BioIVT, Cat# HMN666664). The assays were performed in duplicate. Vials were incubated at 37 °C at 60 rpm in a water bath and taken at designated time points including 0, 480, 1080 and 1440 min. For each time point, the initiation of the reaction was staggered so all the time points were terminated with cold acetonitrile containing internal standards (IS, 100 nM alprazolam, 200 nM labetalol, 200 nM Imipramine and 2 μM ketoplofen) at the same time. Samples were vortexed then centrifuged at 4°C to remove proteins. The supernatants from centrifugation were diluted by ultra-pure H2O and used for LC-MS/MS analysis. All calculations were carried out using GraphPad Prism. Remaining percentages of parent compounds at each time point were estimated by determining the peak area ratios from extractedion chromatograms.

The nature of another data set: Plasma stability assay. The class given is in vitro ADME. Conditions: both sexes, pooled human plasma, 37 °C, values represent 95% confidence intervals, read-out: Half-life (hour), plasma stability. How it is done: as §4
The target in a further data set is T3, Gαs/GDP (Homo sapiens, UniProt P63092).
T3 construct: hexahistidine (N, cleaved yes); made in house; host or cells: E. coli BL21(DE3)
Kind of data set: Bio-layer interferometry (BLI), GDP-bound Gαs. Conditions: read-out: KD, binding to Gαs/GDP. How it is done: as §1, §2, §3

A further data set concerns the target T4, Gαs/GDP and Gβγ(C68S) (Homo sapiens, UniProt P63092).
T4 construct: hexahistidine (N, cleaved yes); made in house; host or cells: E. coli BL21(DE3) (Gαs); Sf9 insect cells (Gβ1γ2)
Kind of data set: FRET based Gαs/Gβγ interaction assay. It is filed as binding.

Data set [2] concerns the target T5, Adenylyl cyclase (C1 domain of ADCY5, VC1, with C2 domain of ADCY2, IIC2) (human, UniProt O95622 442-658; Q08462 871-1082).
T5 construct: C1 domain (VC1) of adenylyl cyclase V; C2 domain (IIC2) of human adenylyl cyclase II, residues 871-1082; Forskolin (100 uM) was present in the assay; also called AC; VC1/IIC2; source: E. coli BL21(DE3), purified (TALON, gel filtration); VC1 and IIC2 mixed with forskolin as one AC stock
Kind of data set: AlphaScreen or HTRF; TR-FRET competition: biotinylated GNP-bound Gαs (100 nM) with streptavidin XL665, AC (VC1 20 nM, IIC2 40 nM, forskolin 100 uM) with anti-6His-Tb cryptate, GN13 0-40,000 nM, 1 h at room temperature, 1X PBS 7.4, 0.1% BSA, 2 mM DTT, 2 mM MgCl2. Particulars: both partners purified.

Data set [3] has as its target T6, Adenylyl cyclase (AC): C1 domain of ADCY5 (VC1) with C2 domain of ADCY2 (IIC2), with forskolin (human, UniProt O95622 442-658; Q08462 871-1082).
T6 construct: C1 domain of human ADCY5 (adenylyl cyclase V), residues 442-658; C2 domain of human ADCY2 (adenylyl cyclase II), residues 871-1082; In the TR-FRET assay AC was detected with anti-6His-Tb cryptate; source: E. coli BL21(DE3), each domain purified (TALON, gel filtration), mixed as an AC stock with forskolin
Kind of data set: AlphaScreen or HTRF; TR-FRET Gαs/adenylyl cyclase interaction assay: 100 nM GNP-bound biotinylated Gαs with streptavidin XL665, 20 nM VC1, 40 nM IIC2, 100 μM forskolin with anti-6His-Tb cryptate, cyclic peptide series; 1X PBS 7.4, 0.1% BSA, 2 mM DTT, 2 mM MgCl2, 1 h at room temperature. Conditions: both partners purified.

`CC[C@H](C)[C@@H]1NC(=O)[C@H](C)NC(=O)[C@H](Cc2ccc(O)cc2)NC(=O)[C@H](C(C)C)NC(=O)[C@H](CO)NC(=O)[C@H](CCC(=O)O)NC(=O)[C@H](Cc2ccccc2)NC(=O)[C@@H](Cc2ccc(O)cc2)NC(=O)CSC[C@@H](C(=O)NCC(N)=O)NC(=O)[C@H](CC(C)C)NC(=O)[C@H]([C@@H](C)O)NC(=O)CNC(=O)[C@H](Cc2c[nH]c3ccccc23)NC1=O` [GN13] ({CH2CO}-[dY]FESVYAIWGTLCG-NH2; thioether N-13): at Gαs (short isoform), the IC50 was found to be 4.15 ± 1.13 µM. Besides, on Gαs/GNP, the Kd was found to be 190 ± 20 nM. The half-life at 10 μM in data set [1] is greater than 76 h; in the data set “Plasma stability assay”, greater than 82 h.
As for `CC[C@H](C)[C@@H]1NC(=O)[C@H](CC(C)C)NC(=O)[C@@H](Cc2ccc(O)cc2)NC(=O)CSC[C@@H](C(=O)NCC(N)=O)NC(=O)[C@@H]2CCCN2C(=O)[C@H](CC(C)C)NC(=O)[C@H](CC(N)=O)NC(=O)[C@H](CC(C)C)NC(=O)[C@H](C)NC(=O)[C@H](Cc2c[nH]c3ccccc23)NC(=O)[C@H](CCC(N)=O)NC(=O)[C@H](CCCNC(=N)N)NC(=O)[C@H](Cc2ccccc2)NC(=O)[C@H]([C@@H](C)O)NC1=O` [cpGD20] ({CH2CO}-[dY]LITFRQWALNLPCG-NH2; thioether N-14), at Gαs/GDP, the Kd stood at 14.5 ± 0.4 nM. Further, the IC50 on Gαs/GDP and Gβγ(C68S) stood at 14 ± 0.6 nM. The half-life at 10 μM in data set [1] is 37.4 to 50.3 h; in the data set “Plasma stability assay”, 7.16 to 12.7 h.

B1: Biotinylated Avi-Gαs (WT), residues 7-380 of the short isoform of human Gαs (natural protein)
chain: SKTEDQRNEEKAQREANKKIEKQLQKDKQVYRATHRLLLLGAGESGKSTIVKQMRILHVNGFNGDSEKATKVQDIKNNLKEAIETIVAAMSNLVPPVELANPENQFRVDYILSVMNVPDFDFPPEFYEHAKALWEDEGVRACYERSNEYQLIDCAQYFLDKIDVIKQADYVPSDQDLLRCRVLTSGIFETKFQVDKVNFHMFDVGGQRDERRKWIQCFNDVTAIIFVVASSSYNMVIREDNQTNRLQEALNLFKSIWNNRWLRTISVILFLNKQDLLAEKVLAGKSKIEDYFPEFARYTTPEDATPEPGEDPRVTRAKYFIRDEFLRISTASGDGRHYCYPHFTCAVDTENIRRVFNDCRDIIQRMHLRQYELL
modifications: biotin on the Avi tag
notes: Gαs (GNAS), human, short isoform (380 residues), residues 7-380; Loaded with GppNHp (GNP) or GDP as the assay says; also called Biotinylated Gαs/GNP; Biotinylated Gαs/GDP; source: E. coli BL21(DE3), purified (TALON, Source-15Q, gel filtration), biotinylated with BirA; not shown: Avi tag, N-terminal, kept; His6, N-terminal, cleaved
Consider B1, for which, in data set [2], the binding result is “binds”.

B2: Biotinylated Avi-Gαs (WT), residues 7-380 of the short isoform of human Gαs (natural protein)
chain: SKTEDQRNEEKAQREANKKIEKQLQKDKQVYRATHRLLLLGAGESGKSTIVKQMRILHVNGFNGDSEKATKVQDIKNNLKEAIETIVAAMSNLVPPVELANPENQFRVDYILSVMNVPDFDFPPEFYEHAKALWEDEGVRACYERSNEYQLIDCAQYFLDKIDVIKQADYVPSDQDLLRCRVLTSGIFETKFQVDKVNFHMFDVGGQRDERRKWIQCFNDVTAIIFVVASSSYNMVIREDNQTNRLQEALNLFKSIWNNRWLRTISVILFLNKQDLLAEKVLAGKSKIEDYFPEFARYTTPEDATPEPGEDPRVTRAKYFIRDEFLRISTASGDGRHYCYPHFTCAVDTENIRRVFNDCRDIIQRMHLRQYELL
modifications: biotin on the Avi tag (BirA)
notes: human Gαs (GNAS), short isoform, residues 7-380; Loaded with GNP (GppNHp) or GDP; the nucleotide state is told by the assay; also called Gαs/GNP; Gαs/GDP; source: E. coli BL21(DE3), purified (TALON, Drice cleavage, BirA biotinylation, Source-15Q, gel filtration); not shown: Avi tag, N-terminal, kept; His6, N-terminal, cleaved
On to B2, for which the binding result in data set [3] is reported as “binds”.
